Laboratory results as given in article PMC2860993 (PLoS ONE, 2010).
Read-outs that look alike come from different tables or passages of the source.

How the values were obtained:
[1] = test system: recombinant luciferase-expressing CMV (Towne); assay: microbe, parasite or virus in culture; type: cell-based, human CMV; conditions: for Selectivity index (SI): ratio between CC50 and EC50
Procedure: (§1) Human Foreskin Fibroblasts (HFF) passage 12–16 and human lung fibroblasts (HEL) passage 8–12 (from ATCC) were maintained in DMEM containing 10% fetal bovine serum and used for infections with the viruses.
The CMV strains used for infections were the highly-passaged Towne virus, and a clinical isolate obtained from the urine of a neonate with congenital CMV infection (SB) and passaged once in tissue culture. […] Initial experiments were performed using a recombinant human CMV-green fluorescent protein (GFP) virus, derived from Towne strain. This virus has a 9-kb deletion from the dispensable unique short (US) region from US1 to US12, and instead contains the bacterial artificial chromosome sequences and a GFP expression cassette. […] A recombinant virus expressing luciferase reporter gene under the control of UL99 (pp28) late promoter was generated by insertion of the reporter gene between the US9 and US10 ORFs in the Towne genome.
Towne-GFP, Towne–luciferase, and SB viruses were used in these assays. HFF or HEL were grown to subconfluent monolayers and infected with the CMV viruses at MOI 0.1 to 3. […] The concentration of each compound was calculated and adjusted by volume such that it was constant throughout the experiment. Following 90 minute incubation, media was replaced with fresh media containing the drug used. Infected and treated cells were incubated at 37°C in a 5% CO2 atmosphere for 3–10 days depending on the virus and the anti-viral assay. The recombinant luciferase-expressing virus was incubated for 72 hours, the GFP virus was incubated for 5 days, and the clinical isolate for 10 days. All experiments were subsequently repeated with compounds added to wells just after viral inoculation.

[2] = Cellular cytotoxicity, CellTiter-Glo Luminescent Cell Viability Assay; type: cell-based; conditions: human
Procedure: as §1, with “viruses. Cells in concentrations of 5×10^4 and 1×10^4 were seeded 24 hours prior to infection on each well of 24-and 96-well plates respectively.” for “viruses.”

Toxoplasmosis = assay: Anti-toxoplasmosis activity of compounds in supernatants of CMV infected cells; type: cell-based, Toxoplasma gondii; conditions: Human betaherpesvirus 5; supernatants of CMV infected cells at 3–5 days post infection
Description: To confirm that the difference in anti-CMV activity between monomers and dimers was not a result of instability of the monomers in tissue culture, we determined the anti-toxoplasmosis activity of these compounds in the supernatants of CMV infected cells at 3–5 days post infection.

[3] = test system: CMV IE1 protein expression; assay: Western blot for CMV immediate early protein IE1; type: cell-based, human CMV; conditions: for expression of IE1 and GFP: 100 µM, Towne-GFP, HFF, day 5 post infection; for IE1 expression: SB clinical isolate
Procedure: Monoclonal antibodies to CMV immediate early proteins IE-1 and IE-2 (MAb810) and to cellular β-actin were purchased from Millipore (Billerica, MA). Confluent cells were infected with CMV in the presence of artemisinin compounds. At the indicated times cells were harvested in sample buffer (RIPA buffer, Tris 50 mM, Nacl 150 mM, SDS 0.1%, Na Deoxycholate 0.5%, NP40 1%, and protease inhibitor cocktail), boiled and loaded onto SDS-PAGE. Proteins were separated by electrophoresis and transferred to nitrocellulose membrane. After blocking, blots were probed with primary antibody (1∶3,000) overnight at 4°C in phosphate-buffered saline, and Tween. After washing 3 times, blots were probed with HRP-conjugated anti-mouse (Sigma), 1∶5,000 for 1 hour at room temperature. Blots were washed three times in phosphate-buffered saline/Tween, and then developed by enhanced chemiluminescence according to manufacturer protocol.
The expression of CMV immediate early (IE) protein was tested by western blot to determine whether artemisinins' inhibition of CMV replication occurs early in the virus life cycle. […] Further evidence for the early effect of artemisinins on IE1 protein expression was obtained with the clinical isolate (SB, Fig. 5b).
Western blot for IE1 and GFP performed at day 5 post infection. […] Western blot for IE1 was performed at 12 hr (MOI = 3), 24 hr and 48 hr (MOI = 1) post infection.

[4] = test system: recombinant luciferase-expressing CMV; assay: Plaque reduction assay in human embryonic lung cells; type: cell-based, human CMV; conditions: 10 µM; HEL cells; luciferase virus; 10 days
Procedure: For plaque reduction assay, human embryonic lung cells were seeded into six-well plates and incubated at 37°C one day prior to infection with the recombinant luciferase-expressing CMV. Serial dilutions of GCV, artesunate and artefanilide were used. The virus was diluted to a desired concentration which gave 50–60 plaques per well. Medium was aspirated from the wells, and 0.2 ml of virus suspension was added to each well in triplicates. Plates were incubated for 90 minutes with shaking every 10 min, thereafter drugs were added and a methylcellulose overlay applied to each well. After incubation for 10 days, cells were stained with crystal violet. The stain was aspirated, wells were washed with phosphate-buffered saline, and plaques were counted.

CMV clinical isolates = test system: CMV clinical isolates; parameters: method as in PMID 11976732; conditions: 11.1 µM ref 19; cited from earlier work
[5] = Human betaherpesvirus 5, read-out: EC50 (µM) - CMV
[6] = drug concentration that leads to 50% cellular cytotoxicity, mean and SD, at least five independent experiments, read-out: CC50

SMILES	EC50 ([1]; Human betaherpesvirus 5, 72 h) [µM]	EC50 [1, 5] [µM]	CC50 [2, 6] [µM]	EC50 (Toxoplasmosis) [µM]	expression of IE1 and GFP ([3]; MOI of 0.1)	expression of IE1 and GFP ([3]; MOI of 0.5)	reduction in plaque formation [4] [%]	IE1 expression ([3]; 10 µM, MOI = 1, 24 and 48 hr)	Selectivity index (SI) [1]	CC50 [2] [µM]	in-vitro inhibition of clinical isolates (CMV clinical isolates)	selectivity relative to GCV ([1]; comparison of SI, Table 1)	IE1 expression ([3]; 1 µM, MOI = 1, 24 and 48 hr)	IE1 expression ([3]; 1 µM, MOI = 3, 12 hours post infection)
C[C@@H]1CC[C@H]2[C@@H](C)C(=O)O[C@@H]3O[C@@]4(C)CC[C@@H]1[C@]32OO4 [Artemisinin (1), artemisinin]	16.8 ± 4	15.7 ± 4.5	72.4 ± 15.7	4.1 ± 1.1	undetectable	decreased								
Nc1nc(O)c2ncn(COC(CO)CO)c2n1 [GCV, Ganciclovir]	5.6 ± 0.2		247 ± 33.4				80	not affected						
C[C@H]1[C@@H](CCC(=O)Nc2ccc(F)cc2)O[C@@H]2O[C@@]3(C)CC[C@H]4[C@H](C)CC[C@@H]1[C@@]24OO3 [Artefanilide (3), artefanilide]	8.1 ± 2.2								5.5±1.6	44.9 ± 3.4				
CO[C@H]1O[C@@H]2O[C@@]3(C)CC[C@H]4[C@H](C)CC[C@@H]([C@H]1C)[C@@]24OO3 [Artemether (2c), artemether]	5.3 ± 2.7	5.1 ± 2.1		0.58 ± 0.22					3.5±2.2	18.4 ± 7.5				
C[C@H]1[C@H](OC(=O)CCC(=O)O)O[C@@H]2O[C@@]3(C)CC[C@H]4[C@H](C)CC[C@@H]1[C@@]24OO3 [Artesunate (2d), artesunate]	18.5 ± 5.2	17.2 ± 3.4	77.5 ± 14.4	3.2 ± 0.8					4.2±2.2		50–80%			
C[C@H]1[C@@H](CC(C[C@H]2O[C@@H]3O[C@@]4(C)CC[C@H]5[C@H](C)CC[C@@H]([C@H]2C)[C@@]35OO4)CS(=O)(=O)c2ccc(COC(=O)N(C)C)cc2)O[C@@H]2O[C@@]3(C)CC[C@H]4[C@H](C)CC[C@@H]1[C@@]24OO3 (some centres unmarked) [Dimer sulfone carbamate (6), dimer sulfone dimethyl carbamate]	0.06								508±173	28.1 ± 9.6		approximately 10 times		
C[C@H]1[C@@H](CC(CO)C[C@H]2O[C@@H]3O[C@@]4(C)CC[C@H]5[C@H](C)CC[C@@H]([C@H]2C)[C@@]35OO4)O[C@@H]2O[C@@]3(C)CC[C@H]4[C@H](C)CC[C@@H]1[C@@]24OO3 (some centres unmarked) [Dimer primary alcohol (4), dimer primary alcohol]	0.15 ± 0.02	0.16 ± 0.04		0.4 ± 0.15					380±53	57 ± 2.3			significantly reduced	inhibition of IE1 expression
